Laboratory results published in ChEMBL document CHEMBL1201862, “PubChem BioAssay data set” (2004).
Calls of active or inactive are those of the source.

Key:
[1] = HEp-2 cell cytotoxicity, dose response, cytotoxicity control for RSV inhibitor project, HTS (AID 2410); assay type: functional; settings: human respiratory syncytial virus
[2] = target: Luciferin 4-monooxygenase (Photinus pyralis, UniProt P08659); experiment: firefly luciferase enzyme inhibitors, dose response, biochemical, luminescence (AID 1891)
Luciferin 4-monooxygenase, sequence (P08659 whole entry): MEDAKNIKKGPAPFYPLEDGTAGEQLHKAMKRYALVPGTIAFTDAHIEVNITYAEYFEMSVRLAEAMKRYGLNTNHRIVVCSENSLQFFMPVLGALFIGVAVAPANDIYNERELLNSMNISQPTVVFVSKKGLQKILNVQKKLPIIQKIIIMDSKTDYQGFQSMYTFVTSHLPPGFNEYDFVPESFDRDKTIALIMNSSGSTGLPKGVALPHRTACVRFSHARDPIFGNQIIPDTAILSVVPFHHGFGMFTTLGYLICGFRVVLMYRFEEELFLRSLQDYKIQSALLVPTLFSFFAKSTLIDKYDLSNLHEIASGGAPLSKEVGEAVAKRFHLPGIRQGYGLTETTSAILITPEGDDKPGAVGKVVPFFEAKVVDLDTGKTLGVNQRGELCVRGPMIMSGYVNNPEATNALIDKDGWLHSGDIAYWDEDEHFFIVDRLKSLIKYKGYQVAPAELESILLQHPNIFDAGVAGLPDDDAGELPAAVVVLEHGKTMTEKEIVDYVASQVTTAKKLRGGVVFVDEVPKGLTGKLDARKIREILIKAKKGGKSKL

[3] = Luminescence Cell-Based Dose Confirmation HTS to Identify Inhibitors of Platelet Dense Granule Release. [Related pubchem assays: 1663 (Primary HTS), 1678 (Summary of Project)]; assay type: functional
[4] = target: T1, Rac GTPase-activating protein 1 (Homo sapiens, UniProt Q9H0H5); experiment: MgcRacGAP GTPase-activating activity inhibitors, confirmation, biochemical, ADP Hunter fluorescence, primary and confirmatory (AID 624330); assay type: functional
T1 sequence (Q9H0H5 whole entry): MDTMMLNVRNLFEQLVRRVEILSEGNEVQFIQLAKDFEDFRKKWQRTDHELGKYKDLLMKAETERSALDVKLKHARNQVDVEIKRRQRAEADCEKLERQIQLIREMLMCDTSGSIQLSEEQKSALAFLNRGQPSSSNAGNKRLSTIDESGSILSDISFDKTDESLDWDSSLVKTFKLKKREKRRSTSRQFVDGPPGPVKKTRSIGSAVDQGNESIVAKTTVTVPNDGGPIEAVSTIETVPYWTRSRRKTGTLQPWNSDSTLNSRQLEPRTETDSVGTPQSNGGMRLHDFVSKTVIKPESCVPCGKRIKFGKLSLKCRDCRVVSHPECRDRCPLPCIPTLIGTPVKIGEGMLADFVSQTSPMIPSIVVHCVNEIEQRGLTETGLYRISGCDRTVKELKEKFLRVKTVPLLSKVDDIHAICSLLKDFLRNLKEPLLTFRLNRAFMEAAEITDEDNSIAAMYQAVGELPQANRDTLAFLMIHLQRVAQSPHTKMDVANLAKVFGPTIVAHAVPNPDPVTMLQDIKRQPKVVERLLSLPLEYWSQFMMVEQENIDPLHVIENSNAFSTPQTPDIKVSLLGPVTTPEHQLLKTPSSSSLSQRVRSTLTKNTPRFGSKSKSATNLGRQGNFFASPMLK

[5] = Luminescence Cell-Based Dose Retest to Confirm Inhibitors of Cancer Stem Cells. [Related pubchem assays (depositor defined):AID2717, AID2721]; assay type: functional; settings: Homo sapiens
[6] = Shn3 3'UTR reporter inhibitors, dose response, cell-based, Clone20 osteoblasts, firefly luciferase, cherry-picked (AID 624132); assay type: functional;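 also: firefly luciferase luminescence from reporter carrying the Shn3 3'UTR in osteoblasts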
[7] = target: T2, Replicative DNA helicase DnaB (Mycobacterium tuberculosis, UniProt P9WMR3); experiment: DnaB intein splicing inhibitors, dose response, biochemical, cell-free fluorescence (AID 449749); assay type: functional
T2 sequence (P9WMR3 whole entry): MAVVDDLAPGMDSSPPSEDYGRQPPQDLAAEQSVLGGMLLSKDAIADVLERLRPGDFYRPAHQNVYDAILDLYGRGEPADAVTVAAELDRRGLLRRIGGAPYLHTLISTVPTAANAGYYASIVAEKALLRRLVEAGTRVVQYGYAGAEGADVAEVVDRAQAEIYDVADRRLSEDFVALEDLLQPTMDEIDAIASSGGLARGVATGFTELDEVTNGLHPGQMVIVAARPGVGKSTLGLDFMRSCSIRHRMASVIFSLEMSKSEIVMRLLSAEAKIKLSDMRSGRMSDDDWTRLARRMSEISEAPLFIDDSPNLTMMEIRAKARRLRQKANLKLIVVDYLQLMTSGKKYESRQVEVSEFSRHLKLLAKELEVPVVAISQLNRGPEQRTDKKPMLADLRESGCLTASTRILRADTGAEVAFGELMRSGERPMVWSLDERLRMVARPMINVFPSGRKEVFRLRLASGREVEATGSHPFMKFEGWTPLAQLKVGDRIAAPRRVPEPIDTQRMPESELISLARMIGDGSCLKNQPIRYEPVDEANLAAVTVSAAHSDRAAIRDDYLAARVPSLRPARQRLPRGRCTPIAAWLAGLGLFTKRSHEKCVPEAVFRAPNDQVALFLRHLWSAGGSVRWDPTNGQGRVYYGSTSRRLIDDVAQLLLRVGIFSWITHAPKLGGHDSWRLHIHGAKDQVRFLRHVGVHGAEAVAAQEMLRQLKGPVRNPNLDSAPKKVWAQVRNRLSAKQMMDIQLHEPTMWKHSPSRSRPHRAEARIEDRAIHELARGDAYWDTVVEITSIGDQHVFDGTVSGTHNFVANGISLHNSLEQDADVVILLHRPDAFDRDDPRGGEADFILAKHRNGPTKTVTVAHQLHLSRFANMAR

[8] = target: T3, Protein RecA (Mycobacterium tuberculosis, UniProt P9WHJ3); experiment: Fluorescence Cell-Free Homogeneous Dose Retest to Identify Inhibitors of RecA-Intein Splicing Activity. [Related pubchem assays (depositor defined):AID2097, AID2223, AID489010, AID492950]; assay type: functional
T3 sequence (P9WHJ3 whole entry): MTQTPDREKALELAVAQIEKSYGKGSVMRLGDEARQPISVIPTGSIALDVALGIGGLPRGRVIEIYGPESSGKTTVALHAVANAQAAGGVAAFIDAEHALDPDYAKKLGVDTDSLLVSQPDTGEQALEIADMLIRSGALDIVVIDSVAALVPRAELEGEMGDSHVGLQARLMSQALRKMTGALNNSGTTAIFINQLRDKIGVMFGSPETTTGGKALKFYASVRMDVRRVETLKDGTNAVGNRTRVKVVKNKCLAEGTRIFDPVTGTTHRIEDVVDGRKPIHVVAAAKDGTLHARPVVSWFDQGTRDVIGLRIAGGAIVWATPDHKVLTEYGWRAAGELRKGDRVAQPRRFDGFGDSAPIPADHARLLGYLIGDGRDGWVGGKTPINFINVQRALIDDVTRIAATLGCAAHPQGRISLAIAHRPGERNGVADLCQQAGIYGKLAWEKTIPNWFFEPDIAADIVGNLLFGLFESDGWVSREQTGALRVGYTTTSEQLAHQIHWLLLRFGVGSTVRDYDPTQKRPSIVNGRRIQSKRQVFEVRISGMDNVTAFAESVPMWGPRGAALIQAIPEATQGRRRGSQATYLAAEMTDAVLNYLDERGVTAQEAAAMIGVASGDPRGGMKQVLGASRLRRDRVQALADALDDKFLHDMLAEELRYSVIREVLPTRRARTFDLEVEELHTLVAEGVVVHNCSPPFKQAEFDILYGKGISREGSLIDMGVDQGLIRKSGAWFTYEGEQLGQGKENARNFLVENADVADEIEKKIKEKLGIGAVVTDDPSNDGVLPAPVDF

[9] = target: T4, Polyadenylate-binding protein 1 (Homo sapiens, UniProt P11940); experiment: PABP1 MLLE–PAM2 interaction inhibitors, dose response, miRNA deadenylation inhibitor project, biochemical, fluorescence polarization, Cy5-PAM2 peptide, secondary (AID 602260); assay type: functional; settings: read-out: IC50_Mean
T4 sequence (P11940 whole entry): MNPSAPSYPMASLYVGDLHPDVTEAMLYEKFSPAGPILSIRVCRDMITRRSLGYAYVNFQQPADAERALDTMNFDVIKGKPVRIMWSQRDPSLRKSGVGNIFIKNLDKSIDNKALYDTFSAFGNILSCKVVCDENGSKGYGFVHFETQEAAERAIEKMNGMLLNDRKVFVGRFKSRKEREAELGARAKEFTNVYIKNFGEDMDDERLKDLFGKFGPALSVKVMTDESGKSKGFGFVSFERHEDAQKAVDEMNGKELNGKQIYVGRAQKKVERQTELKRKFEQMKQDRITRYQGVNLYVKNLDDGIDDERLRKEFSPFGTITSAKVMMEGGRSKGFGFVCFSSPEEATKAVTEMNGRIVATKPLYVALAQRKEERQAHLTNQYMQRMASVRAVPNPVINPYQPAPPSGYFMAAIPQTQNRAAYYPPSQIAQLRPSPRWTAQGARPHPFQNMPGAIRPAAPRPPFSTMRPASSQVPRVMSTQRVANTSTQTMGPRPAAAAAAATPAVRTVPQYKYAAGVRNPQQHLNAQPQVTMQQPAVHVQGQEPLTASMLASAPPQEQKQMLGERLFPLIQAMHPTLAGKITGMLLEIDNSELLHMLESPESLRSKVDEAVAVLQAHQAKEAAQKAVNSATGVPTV

[10] = target: T4, Polyadenylate-binding protein 1; experiment: PABP1 MLLE–PAM2 binding inhibitor potency, dose response, biochemical, fluorescence polarization, FITC-PAM2 peptide (AID 602259); assay type: functional; settings: read-out: IC50_Mean
[11] = test system: H9c2; experiment: cells; assay type: functional, cell-based; settings: Rattus norvegicus, H9c2, Myocardium;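 also: confirmatory concentration-response retest of ultra-high-throughput screening hits for modulation of myocardial damage; cell death induced by hydrogen peroxide oxidative stress; compound pretreatment for 60 min then peroxide exposure for 2 h; potency is for protecting the cells against peroxide damage rather than for killing them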
[12] = target: Paired box protein Pax-8 (Homo sapiens, UniProt Q06710); experiment: inhibitors of PAX8-driven TPO luciferase reporter, dose response, RMG-I cells, cherry-pick (AID 687027); assay type: functional, cell-based;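 also: luciferase reporter driven by Pax8 target thyroperoxidase promoter measured by SteadyGlo luminescence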
Paired box protein Pax-8, sequence (Q06710 whole entry): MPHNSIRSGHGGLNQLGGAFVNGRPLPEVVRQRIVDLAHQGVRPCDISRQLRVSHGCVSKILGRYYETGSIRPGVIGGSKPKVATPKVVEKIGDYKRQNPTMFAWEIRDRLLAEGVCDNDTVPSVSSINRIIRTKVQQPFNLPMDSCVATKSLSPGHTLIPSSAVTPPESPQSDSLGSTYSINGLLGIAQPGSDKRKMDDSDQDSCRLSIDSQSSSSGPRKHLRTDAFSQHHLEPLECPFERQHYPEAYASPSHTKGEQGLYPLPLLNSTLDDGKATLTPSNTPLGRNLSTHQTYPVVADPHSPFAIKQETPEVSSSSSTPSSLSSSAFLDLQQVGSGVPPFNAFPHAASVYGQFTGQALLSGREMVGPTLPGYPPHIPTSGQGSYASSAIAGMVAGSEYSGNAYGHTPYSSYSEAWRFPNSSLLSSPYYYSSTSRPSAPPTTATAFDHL

[13] = microbe, parasite or virus in culture; assay type: functional; settings: Mycobacterium tuberculosis
[14] = target: Cytochrome P450 2C9 (Homo sapiens, UniProt P11712)
Cytochrome P450 2C9, sequence (P11712 whole entry): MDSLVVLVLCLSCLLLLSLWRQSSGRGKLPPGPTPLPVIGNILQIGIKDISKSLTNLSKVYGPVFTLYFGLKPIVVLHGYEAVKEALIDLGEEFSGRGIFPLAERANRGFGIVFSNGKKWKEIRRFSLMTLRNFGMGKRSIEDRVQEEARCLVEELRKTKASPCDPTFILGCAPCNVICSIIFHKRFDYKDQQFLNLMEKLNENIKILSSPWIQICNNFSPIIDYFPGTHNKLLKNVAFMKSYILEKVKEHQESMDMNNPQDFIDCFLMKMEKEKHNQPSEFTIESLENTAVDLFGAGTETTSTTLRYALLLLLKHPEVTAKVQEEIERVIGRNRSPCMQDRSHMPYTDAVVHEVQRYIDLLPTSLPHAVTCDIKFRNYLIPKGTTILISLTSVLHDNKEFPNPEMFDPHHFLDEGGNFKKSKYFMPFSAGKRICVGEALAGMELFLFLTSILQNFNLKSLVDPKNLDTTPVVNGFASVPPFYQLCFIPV

In the case of COc1ccc(CNC(=O)c2cc(-c3cc(C)cc(C)c3O)[nH]n2)cc1, the CC50 [1] is reported as > 50 µM (active).

For O=C(CSCc1c(Cl)cccc1Cl)NCc1ccco1, the EC50 [2] was > 112 µM (not active) and the EC50 [3] was > 112 µM (not active).

With COc1ccc(-c2nc(C[S+]([O-])CC(=O)NC3CCCC(C)C3C)c(C)o2)cc1OC (stereo not given) the EC50 [2] was > 112 µM (not active) and the EC50 [3] was > 112 µM (not active).

In the case of O=C1NC(=S)S/C1=C1\Sc2ccccc2N1CCCS(=O)(=O)O, the IC50 [4] is reported as 123 µM (active).

With Cc1ncoc1C(=O)Nc1ccc2c(c1)OCCO2 the EC50 [2] was 34.3 µM (active) and the EC50 [3] was 5.11 µM (active).

In the case of O=C(Nc1ccc(O)cc1)c1cc2n(n1)C(C(F)(F)F)CC(c1ccco1)N2 (stereo not given), the IC50 [4] is reported as 27.7 µM (active).

In the case of COc1cccc(CN2CCN(Cc3cccc(Oc4ccccc4)c3)CC2)c1OC, the IC50 [4] is reported as 93.1 µM (active).

For Cc1cc(C)n(C(=O)c2ccc(S(=O)(=O)N3CCCC3)cc2)n1, the EC50 [2] was > 112 µM (not active) and the EC50 [3] was > 112 µM (not active).

For Cc1ccc(CNc2cnn(C34CC5CC(CC(C5)C3)C4)c(=O)c2Cl)cc1, the AC50 [5] was 1.18 µM (active).

In the case of Cc1cccc(C)c1NC(=O)CN(C)C(=O)c1cc(S(=O)(=O)N(C)C)ccc1N1CCCC1, the AC50 [6] is reported as 27.1 µM (active).

For CCOc1ccccc1N(C(=O)Nc1ccc(Cl)cc1)C1=NCCS1, the AC50 [5] was 5.46 µM (active).

For O=C(Nc1ccc(O)cc1)c1ccccc1OCc1ccccc1, the IC50 [4] was 30.1 µM (active).

In the case of CCOC(=O)NC1(C(F)(F)F)NC(=O)N(Cc2ccco2)C1=O (stereo not given), the EC50 [2] is reported as > 112 µM (not active) and the EC50 [3] is reported as > 112 µM (not active).

For CN(c1ccccc1)S(=O)(=O)c1cccc(NC(=O)c2cncc(Br)c2)c1, the CC50 [1] was 12.4 µM (active).

For CCO/C(O)=C1/Sc2ccccc2N=C1C, the IC50 [4] was 53.5 µM (active).

For O=C(CCl)Nc1ccccc1C(=O)Nc1ccc2c(c1)OCO2, the EC50 [2] was > 112 µM (not active), the EC50 [3] was 27.7 µM (active) and the AC50 [7] was 64.8 µM (active). For the same molecule, the EC50 [8] was 13 µM (active).

With CCOC(=O)C(=O)NNc1ccc(F)cc1 the AC50 [5] was 0.837 µM (active).

For CCOc1ccccc1N(C(=O)c1snc(C(N)=O)c1N)C(C(=O)NC1CCCC1)c1cccs1 (stereo not given), the IC50 [9] was > 66 µM (inactive) and the IC50 [10] was > 66 µM (inactive).

In the case of COc1cccc(OC)c1C(=O)N1CCN(Cc2ccc3c(c2)OCO3)CC1, the IC50 [4] is reported as 248 µM (active).

With Cn1c(=O)c2c(SCc3c(F)cccc3Cl)nc(CC(C)(C)C)nc2n(C)c1=O the CC50 [1] was 30.1 µM (active).

With Cc1ccc(Cn2nnc3c(O)nc(C4CCN(S(=O)(=O)c5ccccc5F)CC4)nc32)cc1 the CC50 [1] was 22.2 µM (active).

For COc1ccc(NC(=O)CN2C(=O)C(c3ccccc3)=NC23CCCCCC3)cc1, the EC50 [2] was > 112 µM (not active) and the EC50 [3] was > 112 µM (not active).

For NC(=O)CC(NC(=O)Cc1ccc(Br)cc1)c1ccc(NC2CC3CCC2C3)c([N+](=O)[O-])c1 (stereo not given), the AC50 [5] was 6.22 µM (active).

With CCOc1cc(-c2cc(-c3ccc(N)cc3)nc(N)c2C#N)ccc1O the IC50 [11] was > 79 µM (inactive) and the IC50 [4] was 131 µM (active).

For O=C(Cc1nnc(O)c2ccccc12)NCc1ccc(Cl)cc1, the EC50 [2] was > 112 µM (not active), the EC50 [3] was > 112 µM (not active) and the IC50 [11] was > 79 µM (inactive).

In the case of COc1ccccc1NC(=O)C(C)NS(=O)(=O)c1ccccc1 (stereo not given), the EC50 [2] is reported as > 112 µM (not active) and the EC50 [3] is reported as > 112 µM (not active).

For O=C(Nc1ccccc1Cl)Oc1ccc(-c2ccccc2)cc1, the IC50 [4] was 11.3 µM (active).

In the case of Cc1cc(NC(=O)/C=C/c2ccc(Cl)cc2)no1, the AC50 [5] is reported as 22.8 µM (active).

For O=C(NCCCNC(=O)c1nc[nH]c1C(=O)Nc1cccc(Cl)c1)c1nc[nH]c1C(=O)Nc1cccc(Cl)c1, the AC50 [5] was 3.78 µM (active) and the IC50 [11] was > 79 µM (inactive).

In the case of COc1ccc(S[C@@H](CCN2CC[C@H](NC(=O)OCc3ccccc3)CCC2=O)c2ccccc2)cc1, the AC50 [5] is reported as 3.09 µM (active).

With CN(Cc1ccc2c(c1)CCCN2C)C(=O)[C@H]1O[C@@H](n2ccc(=O)[nH]c2=O)[C@H](O)[C@@H]1O the IC50 [9] was > 66 µM (inactive) and the IC50 [10] was > 66 µM (inactive).

With CCOC1=C2CN(S(=O)(=O)c3ccc(C)cc3)[C@@H](c3ccccc3)C[C@H]2[C@H]2C(=O)N(c3ccccc3)C(=O)[C@H]2C1 the IC50 [9] was > 66 µM (inactive) and the IC50 [10] was 51 µM (inactive).

With C[C@@H]1CCCCO[C@H](CN(C)S(=O)(=O)c2ccc(Cl)cc2)[C@@H](C)CN([C@@H](C)CO)C(=O)c2cc(NC(=O)CCC(F)(F)F)ccc2O1 the AC50 [12] was 3.2 µM (active).

In the case of C[C@H](CO)N1C[C@H](C)[C@H](CN(C)C(=O)NC2CCCCC2)OCCCC[C@H](C)Oc2ccc(NC(=O)Nc3ccc(C(F)(F)F)cc3)cc2C1=O, the AC50 [12] is reported as 6.15 µM (active).

With C[C@@H]1CN([C@@H](C)CO)S(=O)(=O)c2ccc(C#Cc3ccccc3F)cc2O[C@H]1CN(C)CC1CCOCC1 the AC50 [12] was 10.3 µM (active).

With COc1ccc(NC(=O)CC2Sc3ncnn3C2=O)cc1 (stereo not given) the IC50 [9] was > 66 µM (inactive) and the IC50 [10] was > 66 µM (inactive).

In the case of CC(/C=N/n1c(S)nnc1C1CCCCC1)=C\c1ccccc1, the CC50 [13] is reported as > 40 µM (active) and the AC50 [5] is reported as 4.26 µM (active).

With Nc1nnnn1/N=C/c1cccc(Br)c1 the CC50 [1] was > 50 µM (active).

For O=C1CCC(c2ccc(-n3ccnc3)cc2)=NN1 [IMAZODAN], the EC50 [2] was > 112 µM (not active), the EC50 [3] was 1.36 µM (active) and the AC50 [14] was 31.6 µM (inconclusive).
